PMC6389703, “Identification of Biologically Active Ganoderma lucidum Compounds and Synthesis of Improved Derivatives That Confer Anti-cancer Activities in vitro” (Frontiers in Pharmacology, 2019)
pEC50: −log10 of the molar value. Read-outs that look alike come from different tables or passages of the source.

Assays:
[1] = system: various breast cancer cell lines; test: Cell viability (CellTiter-Glo or PI staining), various breast cancer cell lines; assay type: cell-based, human; settings: for pEC50: Homo sapiens, 72-h treatment, CellTiter-Glo or PI staining
Method: (§1) Either 1 × 10^3–4.8 × 10^3 or 4 × 10^2–1.2 × 10^3 cells were seeded to each well of 96- or 384-well white polystyrene flat-bottomed plates (3610 or 8804BC, Corning) in 100 μL or 30 μL media per well, respectively. The concentrations used were experimentally determined to ensure logarithmic growth during the duration of the experiment and prevent adverse effects on cell growth by DMSO exposure. The plates were incubated at 37°C in 5% CO2 for 24 h before treatment. Stock solutions of test compounds (10 mM in DMSO) in nine 3-fold serial dilutions were dispensed via pintool (Biomek). The final concentration of DMSO was 0.3% (v/v) in each well. The plates were incubated for 72 h at 37°C in 5% CO2 and then quenched with CellTiter-Glo® reagent (50 μL/well in 96-well plate, 30 μL/well in 384-well plate) at RT. The positive controls included staurosporine (10 μM), gambogic acid (10 μM), and a toxic quinoline generated in-house. Plates were then incubated at RT for 20 min and centrifuged at 1000 rpm for 1 min. The cytotoxicity assay was performed by using the CellTiter-Glo® Luminescent Cell Viability Assay kit (G7570, Promega, Madison, WI, United States) according to the manufacturer’s instructions. Luminescence was recorded in an Envision plate reader (PerkinElmer).
(§2) Cell viability assays (MTT or PI staining assays) in SUM-149, SUM-190, MDA-MB-231, and MCF10A cells were performed as we previously described ([Suarez-Arroyo et al., 2016]).
(§3) For the CTG assay, 3 or 4 replicate assays were conducted for each experimental condition, and a minimum of 3 independent experiments were conducted for cellular assays. The mean luminescence of each experimental treatment group was normalized as a percentage of the mean intensity of untreated controls. EC50 values (μM) were calculated by Pipeline Pilot Software (Accelrys, Enterprise Platform, San Diego, CA, United States). EC50 values (μM) from the viability assay were calculated from dose response curve-fitting via non-linear regression by using GraphPad Prism (Version 7.0, San Diego, CA, United States). For cell viability, colony formation, cell-cycle progression, cell death, and western blot assays, the analyses were performed via one-way or two-way ANOVA with post-testing for each condition (concentration, cell cycle stage, apoptotic event, cell line) by using GraphPad Prism.

BJ cells = test: cells; assay type: cell-based
Method: as §1, §3

MCF-7 cells = test: ROS measurement (CellROX green), MCF-7; assay type: cell-based, human; settings: for ROS increase (fold): GA-01, ergosterol, 5,6-dehydroergosterol 50 µM, EP 20 µM; for ROS formation reduction when co-treated with NAC: NAC 100 µM, TBHP 100 µM
Method: (§4) SUM-149 or MDA-MB-231 were plated in 96-well plates at a density of 2 × 10^4 and 1 × 10^4 cells/well, respectively, in black 96-well clear bottom tissue culture plates and incubated for 24 h at 37°C. The mRuby-Mito-7 plasmid was obtained from Addgene (#55874 from Michael Davidson). A stable clone of MCF-7 was generated by using Fugene 6 (Roche) to transfect cells (2 × 10^5) with plasmid (2.0 μg) under neomycin selection. A stable cell line was selected by using G418 (300 μg/mL) for 2 weeks, sorted by flow cytometry, and maintained under G418 thereafter. Transfected MCF-7 cells were plated at a density of 2 × 10^4 cells/well in black 96-well clear bottom tissue culture plates and incubated overnight at 37°C. To test for ROS formation and remove background, cells were replenished with fresh PBS with 2% FBS and treated with the desired compounds for 1 h at 37°C. DMSO (0.5%) was used as a negative control, while Menadione (Mena, at 10 μM) or t-Butyl hydroperoxide (TBHP) at 100 μM final concentration were used as a positive control. To evaluate the compounds’ effects on ROS formation inhibition, the free radical scavenger N-acetyl cysteine (NAC) was used. Cells were treated with or without NAC (500 μM or 100 μM) for 1 h, then CellROX® green reagent (Molecular Probes #C10444) was added to a final concentration of 5 μM, and cells were incubated for an additional 30 min at 37°C. Cells were then washed 2× with PBS, followed by fixation with 4% paraformaldehyde (v/v) for 15 min, and 2 more washes with PBS. Fluorescence intensity was measured in a Clariostar® plate reader (BMG LABTECH, Cary, NC, United States) at 535 nm.

SUM-149 cells [2] = test: Cell viability assay, SUM-149; assay type: cell-based, human
Method: as §1, §2, §3

physchem = settings: organic solvent or mixture
SUM-149 cells [3] = test: ApoTox-Glo Triplex assay, SUM-149; assay type: cell-based, human; settings: SUM-149, 24 h
Method: (§5) Cells (9.5 × 10^4/well in 75 μL of fresh medium) were dispensed in 96-well black flat bottom (8807BC, Corning) plates. The cells were incubated for 12 h at 37°C and then treated with compounds (25 μL) for 24 h. DMSO was used as a negative control, and staurosporine was used as the positive control. […] Then, the Caspase-Glo® 3/7 Reagent was added; plates were mixed briefly by orbital shaking (300-500 rpm for ∼30 s), followed by an additional 30 min incubation at RT. Then luminescence, which correlates with caspase 3/7 activation, was recorded with a plate reader to […] apoptosis induction.

MDA-MB-231 cells [4] = test: ApoTox-Glo Triplex assay, MDA-MB-231; assay type: cell-based, human; settings: MDA-MB-231, 24 h
Method: as §5

MDA-MB-231 cells [5] = test: De novo in-cell protein synthesis (click assay); assay type: cell-based, human; settings: 2 h; EP 20 μM
Method: First, 2.5 × 10^4 cells/well were seeded in 8-well μ-slides (Ibidi®, #80826) and incubated at 37°C for 12 h. The cells were treated with vehicle, compounds Ganoderic acid A or EP, or cycloheximide (positive control) for 2 h to determine protein synthesis as nascent proteins generated using Biovision’s EZClick^TM Global Protein Synthesis Assay Kit, (#K715-100, Milpitas, CA, United States). The assay includes a robust chemical method based on an alkyne containing o-propargyl-puromycin (OP-puro) probe, which stops translation by forming covalent conjugates with nascent polypeptide chains. Truncated polypeptides are rapidly turned over by the proteasome and can be detected based on the subsequent click reaction with a fluorescent azide. The reaction was conducted according to the manufacturer’s protocol. Cells were imaged at 20× with a Nikon C2 scanning confocal microscope, and the whole image montage was quantified by using Gen5 Software and Lionheart^TM FX Automated Microscope (BioTek, Winooski, VT, United States).

MDA-MB-231 cells [6] = test: ROS measurement (CellROX green), MDA-MB-231; assay type: cell-based, human; settings: NAC 500 μM; menadione 10 μM
Method: as §4, with “Cells were treated with or without NAC (500 μM or 100 μM) for 1 h, then CellROX® green reagent (Molecular Probes #C10444) was added to a final concentration of 5 μM, and cells were incubated for an additional 30 min at 37°C. Cells were then washed 2× with PBS, followed by fixation with 4% paraformaldehyde (v/v) for 15 min, and 2 more washes with PBS.” left out

SUM-149 cells [7] = test: ROS measurement (CellROX green), SUM-149; assay type: cell-based, human; settings: NAC 500 μM; EP 20 μM, menadione 10 μM
Method: as §4

evaluated cell lines = test: Cell viability, evaluated cell lines (palmitic acid); assay type: cell-based; settings: tested concentration ≤100μM
Method: Either 1 × 10^3–4.8 × 10^3 or 4 × 10^2–1.2 × 10^3 cells were seeded to each well of 96- or 384-well white polystyrene flat-bottomed plates (3610 or 8804BC, Corning) in 100 μL or 30 μL media per well, respectively. The concentrations used were experimentally determined to ensure logarithmic growth during the duration of the experiment and prevent adverse effects on cell growth by DMSO exposure. The plates were incubated at 37°C in 5% CO2 for 24 h before treatment. Stock solutions of test compounds (10 mM in DMSO) in nine 3-fold serial dilutions were dispensed via pintool (Biomek). The final concentration of DMSO was 0.3% (v/v) in each well. […] Luminescence was recorded in an Envision plate reader (PerkinElmer). […]
as §3, with “For cell viability, colony formation, cell-cycle progression, cell death, and western blot assays, the analyses were performed via one-way or two-way ANOVA with post-testing for each condition (concentration, cell cycle stage, apoptotic event, cell line) by using GraphPad Prism.” left out

With `CC(C)C(C)C=CC(C)C1CCC2C3=CCC4CC(O)CCC4(C)C3CCC21C` (stereo not shown) the pEC50 [1] was under 4.30, the “cytotoxic effects in normal BJ cells” value (BJ cells) was “did not induce cytotoxic effects” and the “ROS increase (fold)” value (MCF-7 cells) was “at least a twofold”. The “ROS formation reduction when co-treated with NAC” value (shortened to “ROS formation reduction”) (MCF-7 cells) was 9–25%.

With `CC(C)[C@@H](C)/C=C/[C@@H](C)[C@H]1CC[C@H]2C34C=CC5(C[C@@H](OC(=O)NS(=O)(=O)c6ccccc6)CC[C@]5(C)C3CC[C@]12C)OO4` (stereo partly shown) [EP sulfonamide, ergosterol peroxide sulfonamide] the pEC50 (SUM-149 cells [2]; Homo sapiens, SUM149, SUM-149, Figure 10A, read-out: EC50, cancer cell viability (derivatives)) was 4.92, the “cytotoxic effects in normal BJ cells” value (BJ cells; at the concentrations tested) was “minimal” and the solubility (physchem) was at least 10 mM.

With `C[C@H](CC(=O)C[C@@H](C)[C@H]1C[C@H](O)[C@@]2(C)C3=C(C(=O)C[C@]12C)[C@@]1(C)CCC(=O)C(C)(C)[C@@H]1C[C@@H]3O)C(=O)O` [GA-01, ganoderic acid A] the pEC50 [1] was under 4.30, the “cytotoxic effects in normal BJ cells” value (BJ cells; at the concentrations tested) was “did not induce cytotoxic effects” and the “caspase 3/7 activity” value (SUM-149 cells [3]) was “increase caspase 3/7 activity”. The “viability (GF-AFC)” value (SUM-149 cells [3]) was “decrease viability”, the “caspase 3/7 activity” value (MDA-MB-231 cells [4]) was “increase caspase 3/7 activity” and the “viability (GF-AFC)” value (MDA-MB-231 cells [4]) was “decrease viability”. The “de novo protein synthesis inhibition” value (MDA-MB-231 cells [5]) was “do not inhibit”, the “ROS increase (fold)” value (MCF-7 cells) was “at least a twofold” and the “ROS formation reduction” value (MCF-7 cells) was 9–25%.

In the case of `CC(C)(C)OO` [TBHP, t-Butyl hydroperoxide, reference compound], the “ROS formation reduction” value (MCF-7 cells) was about 50%.

With `CC(C)[C@@H](C)/C=C/[C@@H](C)[C@H]1CC[C@H]2C3=CC=C4C[C@@H](O)CC[C@]4(C)[C@H]3CC[C@]12C` [ergosterol] the pEC50 [1] was under 4.30, the “concentration from which cancer cell viability is significantly reduced” value ([1]; breast cancer cellular models) was 64 µM and the “concentration at which SUM-149 cell viability is significantly reduced” value (SUM-149 cells [2]; 72 h) was 64 µM. The “cytotoxic effects in normal BJ cells” value (BJ cells) was “did not induce cytotoxic effects”, the “ROS increase (fold)” value (MCF-7 cells) was “at least a twofold” and the “ROS formation reduction” value (MCF-7 cells) was 9–25%.

With `CC1=CC(=O)c2ccccc2C1=O` [menadione, Menadione, reference compound] the “reduction in ROS formation in the presence of NAC” value (MDA-MB-231 cells [6]) was “about 20%” and the “reduction in ROS formation in the presence of NAC” value (SUM-149 cells [7]) was “about 20%”.

For `CCCCCCCCCCCCCCCC(=O)O` [palmitic acid], the pEC50 (BJ cells; Homo sapiens, BJ, Cell Titer Glo, 72-h treatment) was under 4.00, the “activity in the evaluated cell lines” value (evaluated cell lines) was “did not show activity” and the “activity in the evaluated cell lines” value (evaluated cell lines; listed as Palmitic acid) was “No detected biological activity”.
